{"source": "patent US20220281848A1", "about": "“PYRAZOLE-SUBSTITUTED PYRROLIDINONES AS HERBICIDES” (FMC Corporation, priority 2019, published 2022)", "format_in_all_cases": "in vivo", "key": {"[1]": {"test_system": "ivy-leaved morning glory (Ipomoea hederacea, IPOHE)", "assay": "Test A pre-emergence, ivy-leaved morning glory", "conditions": "after 13 d", "summary_of_the_method": "(§1)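 Pots of soil sown, sprayed at day 1 post-sowing: test compound at 15.625/62.5/250 g/ha in acetone:water 1:1 + 0.5% Tween 20. Glasshouse 24/16° C., 14 h light, 65% RH, watering twice daily. Readout: % damage after 13 d.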"}, "[2]": {"test_system": "velvetleaf (Abutilon theophrasti, ABUTH)", "assay": "Test A pre-emergence, velvetleaf", "conditions": "after 13 d", "summary_of_the_method": "as §1"}, "plants": {"test_system": "plants", "assay": "Test D post-emergence, other plants of Tables D2 and D4", "conditions": "post-emergence", "summary_of_the_method": "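Damage was rated visually from 0 (none) to 100 (total), at 20 DAA for pre-emergence and 15 d for post-emergence. Plants grew from safener-treated seed in a glasshouse at 24/18° C. or 20/16° C. day/night, 65% humidity, watered twice daily.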"}, "[3]": {"test_system": "barnyardgrass (Echinochloa crus-galli, ECHCG)", "assay": "Test A pre-emergence, barnyardgrass", "conditions": "after 13 d", "summary_of_the_method": "as §1"}, "corn (Zea mays, ZEAMX)": {"test_system": "corn (Zea mays, ZEAMX)", "assay": "Test A post-emergence, corn", "conditions": "after 13 d", "summary_of_the_method": "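Plants were grown 8 d in a glasshouse (24/16° C day/night, 14 h light, 65% humidity), then sprayed post-emergence at 15.625, 62.5 or 250 g/ha in acetone/water (50:50) with 0.5% Tween 20. Damage was scored visually after 13 d (0 = none, 100 = total).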"}}}
{"smiles": "CCn1nc([C@H]2CN(C)C(=O)[C@@H]2C(=O)Nc2cccc(F)c2F)c2cc(F)ccc21", "note": "[Compound 8]", "values": [{"measurement": "damage to plant (100=total damage; 0=no damage) IPOHE", "setting": "[1]; Pre-Emergence at 15.625 g/ha", "result": 20}, {"measurement": "damage to plant (100=total damage; 0=no damage) IPOHE", "setting": "[1]; Pre-Emergence at 62.5 g/ha", "result": 20}, {"measurement": "damage to plant (100=total damage; 0=no damage) IPOHE", "setting": "[1]; Pre-Emergence at 250 g/ha", "result": 20}, {"measurement": "damage to plant (100=total damage; 0=no damage) ABUTH", "setting": "[2]; Pre-Emergence at 15.625 g/ha", "result": 0}, {"measurement": "damage to plant (100=total damage; 0=no damage) ABUTH", "setting": "[2]; Pre-Emergence at 62.5 g/ha", "result": 0}, {"measurement": "damage to plant (100=total damage; 0=no damage) ABUTH", "setting": "[2]; Pre-Emergence at 250 g/ha", "result": 0}, {"measurement": "damage to plant (100=total damage to plant; 0=no damage to plant), ABUTH", "setting": "plants; rate 130, evaluated after 15 d", "result": 0}, {"measurement": "damage to plant (100=total damage to plant; 0=no damage to plant), ABUTH", "setting": "plants; rate 250, evaluated after 15 d", "result": 0}, {"measurement": "damage to plant (100=total damage to plant; 0=no damage to plant), ABUTH", "setting": "plants; rate 500, evaluated after 15 d", "result": 0}, {"measurement": "damage to plant (100=total damage to plant; 0=no damage to plant), AMARE", "setting": "plants; rate 130, evaluated after 15 d", "result": 0}, {"measurement": "damage to plant (100=total damage to plant; 0=no damage to plant), AMARE", "setting": "plants; rate 250, evaluated after 15 d", "result": 0}, {"measurement": "damage to plant (100=total damage to plant; 0=no damage to plant), AMARE", "setting": "plants; rate 500, evaluated after 15 d", "result": 0}, {"measurement": "damage to plant (100=total damage to plant; 0=no damage to plant), BIDPI", "setting": "plants; rate 130, evaluated after 15 d", "result": 0}, {"measurement": "damage to plant (100=total damage to plant; 0=no damage to plant), BIDPI", "setting": "plants; rate 250, evaluated after 15 d", "result": 0}, {"measurement": "damage to plant (100=total damage to plant; 0=no damage to plant), BIDPI", "setting": "plants; rate 500, evaluated after 15 d", "result": 0}, {"measurement": "damage to plant (100=total damage to plant; 0=no damage to plant), BRAPL", "setting": "plants; rate 130, evaluated after 15 d", "result": 10}, {"measurement": "damage to plant (100=total damage to plant; 0=no damage to plant), BRAPL", "setting": "plants; rate 250, evaluated after 15 d", "result": 70}, {"measurement": "damage to plant (100=total damage to plant; 0=no damage to plant), BRAPL", "setting": "plants; rate 500, evaluated after 15 d", "result": 70}, {"measurement": "damage to plant (100=total damage to plant; 0=no damage to plant), CYPES", "setting": "plants; rate 130, evaluated after 15 d", "result": 0}, {"measurement": "damage to plant (100=total damage to plant; 0=no damage to plant), CYPES", "setting": "plants; rate 250, evaluated after 15 d", "result": 0}, {"measurement": "damage to plant (100=total damage to plant; 0=no damage to plant), CYPES", "setting": "plants; rate 500, evaluated after 15 d", "result": 0}, {"measurement": "damage to plant (100=total damage to plant; 0=no damage to plant), DIGSA", "setting": "plants; rate 130, evaluated after 15 d", "result": 0}, {"measurement": "damage to plant (100=total damage to plant; 0=no damage to plant), DIGSA", "setting": "plants; rate 250, evaluated after 15 d", "result": 80}, {"measurement": "damage to plant (100=total damage to plant; 0=no damage to plant), DIGSA", "setting": "plants; rate 500, evaluated after 15 d", "result": 80}, {"measurement": "damage to plant (100=total damage to plant; 0=no damage to plant), ECHCG", "setting": "plants; rate 130, evaluated after 15 d", "result": 0}, {"measurement": "damage to plant (100=total damage to plant; 0=no damage to plant), ECHCG", "setting": "plants; rate 250, evaluated after 15 d", "result": 80}, {"measurement": "damage to plant (100=total damage to plant; 0=no damage to plant), ECHCG", "setting": "plants; rate 500, evaluated after 15 d", "result": 80}, {"measurement": "damage to plant (100=total damage to plant; 0=no damage to plant), EPHHL", "setting": "plants; rate 250, evaluated after 15 d", "result": 30}, {"measurement": "damage to plant (100=total damage to plant; 0=no damage to plant), EPHHL", "setting": "plants; rate 500, evaluated after 15 d", "result": 20}, {"measurement": "damage to plant (100=total damage to plant; 0=no damage to plant), GLXMA", "setting": "plants; rate 130, evaluated after 15 d", "result": 0}, {"measurement": "damage to plant (100=total damage to plant; 0=no damage to plant), GLXMA", "setting": "plants; rate 250, evaluated after 15 d", "result": 0}, {"measurement": "damage to plant (100=total damage to plant; 0=no damage to plant), GLXMA", "setting": "plants; rate 500, evaluated after 15 d", "result": 0}, {"measurement": "damage to plant (100=total damage to plant; 0=no damage to plant), IPOHE", "setting": "plants; rate 130, evaluated after 15 d", "result": 0}, {"measurement": "damage to plant (100=total damage to plant; 0=no damage to plant), IPOHE", "setting": "plants; rate 250, evaluated after 15 d", "result": 0}, {"measurement": "damage to plant (100=total damage to plant; 0=no damage to plant), IPOHE", "setting": "plants; rate 500, evaluated after 15 d", "result": 0}, {"measurement": "damage to plant (100=total damage to plant; 0=no damage to plant), ORYSA", "setting": "plants; rate 130, evaluated after 15 d", "result": 0}, {"measurement": "damage to plant (100=total damage to plant; 0=no damage to plant), ORYSA", "setting": "plants; rate 250, evaluated after 15 d", "result": 0}, {"measurement": "damage to plant (100=total damage to plant; 0=no damage to plant), ORYSA", "setting": "plants; rate 500, evaluated after 15 d", "result": 10}, {"measurement": "damage to plant (100=total damage to plant; 0=no damage to plant), PANMI", "setting": "plants; rate 130, evaluated after 15 d", "result": 0}, {"measurement": "damage to plant (100=total damage to plant; 0=no damage to plant), PANMI", "setting": "plants; rate 250, evaluated after 15 d", "result": 0}, {"measurement": "damage to plant (100=total damage to plant; 0=no damage to plant), PANMI", "setting": "plants; rate 500, evaluated after 15 d", "result": 0}, {"measurement": "damage to plant (100=total damage to plant; 0=no damage to plant), SETFA", "setting": "plants; rate 130, evaluated after 15 d", "result": 0}, {"measurement": "damage to plant (100=total damage to plant; 0=no damage to plant), SETFA", "setting": "plants; rate 250, evaluated after 15 d", "result": 60}, {"measurement": "damage to plant (100=total damage to plant; 0=no damage to plant), SETFA", "setting": "plants; rate 500, evaluated after 15 d", "result": 80}, {"measurement": "damage to plant (100=total damage to plant; 0=no damage to plant), SIDSP", "setting": "plants; rate 130, evaluated after 15 d", "result": 0}, {"measurement": "damage to plant (100=total damage to plant; 0=no damage to plant), SIDSP", "setting": "plants; rate 250, evaluated after 15 d", "result": 0}, {"measurement": "damage to plant (100=total damage to plant; 0=no damage to plant), SIDSP", "setting": "plants; rate 500, evaluated after 15 d", "result": 10}, {"measurement": "damage to plant (100=total damage to plant; 0=no damage to plant), SORVU", "setting": "plants; rate 130, evaluated after 15 d", "result": 0}, {"measurement": "damage to plant (100=total damage to plant; 0=no damage to plant), SORVU", "setting": "plants; rate 250, evaluated after 15 d", "result": 0}, {"measurement": "damage to plant (100=total damage to plant; 0=no damage to plant), SORVU", "setting": "plants; rate 500, evaluated after 15 d", "result": 0}, {"measurement": "damage to plant (100=total damage; 0=no damage) ECHCG", "setting": "[3]; Pre-Emergence at 15.625 g/ha", "result": 80}, {"measurement": "damage to plant (100=total damage; 0=no damage) ECHCG", "setting": "[3]; Pre-Emergence at 62.5 g/ha", "result": 90}, {"measurement": "damage to plant (100=total damage; 0=no damage) ECHCG", "setting": "[3]; Pre-Emergence at 250 g/ha", "result": 90}, {"measurement": "damage to plant (100=total damage; 0=no damage) ZEAMX", "setting": "corn (Zea mays, ZEAMX); Post-Emergence at 15.625 g/ha", "result": 20}, {"measurement": "damage to plant (100=total damage; 0=no damage) ZEAMX", "setting": "corn (Zea mays, ZEAMX); Post-Emergence at 62.5 g/ha", "result": 60}, {"measurement": "damage to plant (100=total damage; 0=no damage) ZEAMX", "setting": "corn (Zea mays, ZEAMX); Post-Emergence at 250 g/ha", "result": 80}]}
